{
  "source": "patent US8252723B2",
  "about": "“Substituted 1-(3-pyridinyl)pyrazol-4-ylacetic acids, processes for their preparation and their use as herbicides and plant growth regulators” (Bayer CropScience AG, priority 2006, dated 2012)",
  "data": [
    {"test_system": "summer wheat of the cultivar 'Triso'", "assay": "Plant growth regulation test: culm stabilization of crop plants", "type": "in vivo", "details": "application rate of 30 to 300 g of active substance per hectare, treated at stage BBCH 31, culm length measured after ears had formed", "protocol": "With stirring, the compound of the formula (I) in question was, in the form of a water-dispersible powder, together with a surfactant (customary adjuvant at an application rate of 1 l/ha), mixed with water such that a homogenous spray liquor was formed, and applied at an application rate of 300 l of water/ha (converted).\nSeeds of summer wheat of the cultivar ‘Triso’ were sown at a depth of 1 cm in plant pots and cultivated outdoors until treatment.\nThe plants were treated on a laboratory track sprayer with spray liquors of the test substances at macrostage 3 after having reached about 10% of the maximum longitudinal growth typical for the cultivar (stage BBCH 31) and, after the treatment, returned outdoors.\nAfter the ears had formed, the length of the culms were measured. The culm stabilization was evaluated as a percentage of the untreated control.", "values": [
      {"smiles": "CCOC(=O)Cc1c(C)nn(-c2cccnc2)c1-c1ccccn1", "note": "[Example 3-227]", "longitudinal growth (culm length) of summer wheat": "effectively shortened"},
      {"smiles": "Cc1ccncc1-n1nc(C)c(CC(=O)O)c1-c1ccccc1Cl", "note": "[Example 1-22]", "longitudinal growth (culm length) of summer wheat": "effectively shortened"},
      {"smiles": "Cc1nn(-c2cccnc2)c(-c2ccccc2)c1CC(=O)OCC1(C)CC1", "note": "[Example 3-105]", "longitudinal growth (culm length) of summer wheat": "effectively shortened"},
      {"smiles": "COC(=O)Cc1c(C)nn(-c2cccnc2)c1-c1ccncc1", "note": "[Example 2-126]", "longitudinal growth (culm length) of summer wheat": "effectively shortened"},
      {"smiles": "Cc1ccsc1-c1c(CC(=O)O)c(C)nn1-c1cccnc1", "note": "[Example 1-58]", "longitudinal growth (culm length) of summer wheat": "effectively shortened"},
      {"smiles": "COC(=O)Cc1c(C)nn(-c2cnccc2C)c1-c1cccc(C)c1", "note": "[Example 2-38]", "longitudinal growth (culm length) of summer wheat": "effectively shortened"},
      {"smiles": "COC(=O)Cc1c(C)nn(-c2cccnc2)c1-c1cccc(C)c1", "note": "[Example 2-119]", "longitudinal growth (culm length) of summer wheat": "effectively shortened"},
      {"smiles": "C#CCOC(=O)Cc1c(C)nn(-c2cccnc2)c1-c1ccc(OC)nc1", "note": "[Example 3-63]", "longitudinal growth (culm length) of summer wheat": "effectively shortened"},
      {"smiles": "Cc1ccc(-c2c(CC(=O)O)c(C)nn2-c2cnccc2C)cc1Cl", "note": "[Example 1-49]", "longitudinal growth (culm length) of summer wheat": "effectively shortened"},
      {"smiles": "COC(=O)Cc1c(C)nn(-c2cccnc2)c1-c1ccc(F)cc1", "note": "[Example 2-120]", "longitudinal growth (culm length) of summer wheat": "effectively shortened"},
      {"smiles": "C=CCOC(=O)Cc1c(C)nn(-c2cccnc2)c1-c1ccccc1", "note": "[Example 3-148]", "longitudinal growth (culm length) of summer wheat": "effectively shortened"},
      {"smiles": "CCCOC(=O)Cc1c(C)nn(-c2cccnc2)c1-c1ccccn1", "note": "[Example 3-34]", "longitudinal growth (culm length) of summer wheat": "effectively shortened"},
      {"smiles": "Cc1ccc(-c2c(CC(=O)O)c(C)nn2-c2cccnc2)cc1Cl", "note": "[Example 1-46]", "longitudinal growth (culm length) of summer wheat": "effectively shortened"},
      {"smiles": "Cc1nn(-c2ccc(Cl)nc2Cl)c(-c2ccccc2)c1CC(=O)O", "note": "[Example 1-12]", "longitudinal growth (culm length) of summer wheat": "effectively shortened"},
      {"smiles": "C=C(Cl)COC(=O)Cc1c(C)nn(-c2cccnc2)c1-c1cc(C)cs1", "note": "[Example 3-189]", "longitudinal growth (culm length) of summer wheat": "effectively shortened"},
      {"smiles": "Cc1nn(-c2cccnc2)c(-c2ccccc2)c1CC(=O)OCC#CCCl", "note": "[Example 3-109]", "longitudinal growth (culm length) of summer wheat": "effectively shortened"},
      {"smiles": "COC(=O)Cc1c(C)nn(-c2cnccc2[S+](C)[O-])c1-c1ccccc1", "note": "(centres unmarked) [Example 2-71]", "longitudinal growth (culm length) of summer wheat": "effectively shortened"},
      {"smiles": "Cc1nn(-c2cccnc2)c(-c2ccco2)c1CC(=O)O", "note": "[Example 1-4]", "longitudinal growth (culm length) of summer wheat": "effectively shortened"},
      {"smiles": "Cc1nn(-c2cccnc2)c(-c2ccccc2)c1CC(=O)OC(C)C1CC1", "note": "(centres unmarked) [Example 3-144]", "longitudinal growth (culm length) of summer wheat": "effectively shortened"},
      {"smiles": "Cc1nn(-c2ccc(C(F)(F)F)nc2)c(-c2ccccc2)c1CC(=O)O", "note": "[Example 1-9]", "longitudinal growth (culm length) of summer wheat": "effectively shortened"},
      {"smiles": "COC(=O)Cc1c(C)nn(-c2cccnc2)c1-c1ccc(Cl)c(C)c1", "note": "[Example 2-123]", "longitudinal growth (culm length) of summer wheat": "effectively shortened"},
      {"smiles": "Cc1nn(-c2cnccc2[S+](C)[O-])c(-c2ccccc2)c1CC(=O)O", "note": "(centres unmarked) [Example 1-71]", "longitudinal growth (culm length) of summer wheat": "effectively shortened"},
      {"smiles": "Cc1ccc(-n2nc(C)c(CC(=O)O)c2-c2ccccc2)c(C)n1", "note": "[Example 1-11]", "longitudinal growth (culm length) of summer wheat": "effectively shortened"},
      {"smiles": "COC(=O)Cc1c(C)nn(-c2cccnc2)c1-c1ccc(OC)cc1", "note": "[Example 2-14]", "longitudinal growth (culm length) of summer wheat": "effectively shortened"},
      {"smiles": "Cc1nn(-c2cccnc2)c(-c2cccnc2)c1CC(=O)O", "note": "[Example 1-125]", "longitudinal growth (culm length) of summer wheat": "effectively shortened"},
      {"smiles": "COc1ccc(-c2c(CC(=O)OCC3CC3)c(C)nn2-c2cccnc2)cn1", "note": "[Example 3-86]", "longitudinal growth (culm length) of summer wheat": "effectively shortened"},
      {"smiles": "COC(=O)Cc1c(C)nn(-c2cnccc2Cl)c1-c1ccc(Cl)cc1", "note": "[Example 2-29]", "longitudinal growth (culm length) of summer wheat": "effectively shortened"},
      {"smiles": "COC(=O)Cc1c(C)nn(-c2cnccc2C)c1-c1cccc(Cl)c1Cl", "note": "[Example 2-131]", "longitudinal growth (culm length) of summer wheat": "effectively shortened"},
      {"smiles": "COC(=O)Cc1c(C)nn(-c2cnccc2C)c1-c1ccc(C)c(Cl)c1", "note": "[Example 2-49]", "longitudinal growth (culm length) of summer wheat": "effectively shortened"},
      {"smiles": "C=C(Cl)COC(=O)Cc1c(C)nn(-c2cccnc2)c1-c1sccc1C", "note": "[Example 3-188]", "longitudinal growth (culm length) of summer wheat": "effectively shortened"},
      {"smiles": "Cc1nn(-c2cccnc2)c(-c2ccc(Cl)cc2)c1CC(=O)O", "note": "[Example 1-26]", "longitudinal growth (culm length) of summer wheat": "effectively shortened"},
      {"smiles": "Cc1nn(-c2cccnc2)c(-c2ccccc2)c1CC(=O)OCC1CC1(Cl)Cl", "note": "(centres unmarked) [Example 3-113]", "longitudinal growth (culm length) of summer wheat": "effectively shortened"},
      {"smiles": "Cc1ccncc1-n1nc(C)c(CC(=O)O)c1-c1sccc1C", "note": "[Example 1-53]", "longitudinal growth (culm length) of summer wheat": "effectively shortened"},
      {"smiles": "C=C(Cl)COC(=O)Cc1c(C)nn(-c2cccnc2)c1-c1ccc(OC)nc1", "note": "[Example 3-193]", "longitudinal growth (culm length) of summer wheat": "effectively shortened"},
      {"smiles": "COC(=O)Cc1cnn(-c2cnccc2C)c1-c1ccc(Cl)cc1", "note": "[Example 2-133]", "longitudinal growth (culm length) of summer wheat": "effectively shortened"},
      {"smiles": "COC(=O)Cc1c(C)nn(-c2cccnc2)c1-c1cc(C)cc(C)c1", "note": "[Example 2-43]", "longitudinal growth (culm length) of summer wheat": "effectively shortened"},
      {"smiles": "COC(=O)Cc1c(C)nn(-c2ccc(C(F)(F)F)nc2)c1-c1ccccc1", "note": "[Example 2-9]", "longitudinal growth (culm length) of summer wheat": "effectively shortened"},
      {"smiles": "Cc1nn(-c2cccnc2)c(-c2ccc(C(F)(F)F)cc2)c1CC(=O)O", "note": "[Example 1-28]", "longitudinal growth (culm length) of summer wheat": "effectively shortened"},
      {"smiles": "C=C(Cl)COC(=O)Cc1c(C)nn(-c2cccnc2)c1-c1cccs1", "note": "[Example 3-186]", "longitudinal growth (culm length) of summer wheat": "effectively shortened"},
      {"smiles": "Cc1nn(-c2cccnc2)c(-c2ccc(C(=O)O)cc2)c1CC(=O)O", "note": "[Example 1-42]", "longitudinal growth (culm length) of summer wheat": "effectively shortened"},
      {"smiles": "O=C(Cc1cnn(-c2cccnc2)c1-c1ccccc1)OCC1CC1", "note": "[Example 3-100]", "longitudinal growth (culm length) of summer wheat": "effectively shortened"},
      {"smiles": "C=C(Cl)COC(=O)Cc1c(C)nn(-c2cccnc2)c1-c1ccccc1", "note": "[Example 3-184]", "longitudinal growth (culm length) of summer wheat": "effectively shortened"},
      {"smiles": "COC(=O)Cc1cnn(-c2cnccc2C)c1-c1ccccc1", "note": "[Example 2-73]", "longitudinal growth (culm length) of summer wheat": "effectively shortened"},
      {"smiles": "COC(=O)Cc1c(C)nn(-c2cnccc2C)c1-c1ccsc1", "note": "[Example 2-56]", "longitudinal growth (culm length) of summer wheat": "effectively shortened"},
      {"smiles": "COC(=O)Cc1c(C)nn(-c2cccnc2)c1-c1cc(C)ccn1", "note": "[Example 2-136]", "longitudinal growth (culm length) of summer wheat": "effectively shortened"},
      {"smiles": "COC(=O)Cc1c(C)nn(-c2cccnc2)c1-c1ccccc1", "note": "[Example 2-2]", "longitudinal growth (culm length) of summer wheat": "effectively shortened"},
      {"smiles": "CCc1nn(-c2cccnc2)c(-c2ccccc2)c1CC(=O)OC", "note": "[Example 2-74]", "longitudinal growth (culm length) of summer wheat": "effectively shortened"},
      {"smiles": "Cc1nn(-c2cccnc2)c(-c2cccs2)c1CC(=O)O", "note": "[Example 1-57]", "longitudinal growth (culm length) of summer wheat": "effectively shortened"},
      {"smiles": "Cc1nn(-c2cccnc2)c(-c2ccccc2)c1CC(=O)OCC1CC1", "note": "[Example 3-77]", "longitudinal growth (culm length) of summer wheat": "effectively shortened"},
      {"smiles": "COC(=O)Cc1c(C)nn(-c2cnccc2C)c1-c1cccs1", "note": "[Example 2-52]", "longitudinal growth (culm length) of summer wheat": "effectively shortened"},
      {"smiles": "COC(=O)Cc1c(C)nn(-c2cccnc2)c1-c1ccc(C(F)(F)F)cn1", "note": "[Example 2-144]", "longitudinal growth (culm length) of summer wheat": "effectively shortened"},
      {"smiles": "Cc1cncc(-n2nc(C)c(CC(=O)O)c2-c2ccccc2)c1", "note": "[Example 1-50]", "longitudinal growth (culm length) of summer wheat": "effectively shortened"},
      {"smiles": "COC(=O)Cc1c(C)nn(-c2cnccc2C(F)(F)F)c1-c1ccccc1", "note": "[Example 2-8]", "longitudinal growth (culm length) of summer wheat": "effectively shortened"},
      {"smiles": "COC(=O)C(C)c1c(C)nn(-c2cnccc2C)c1-c1ccccc1", "note": "(centres unmarked) [Example 2-6]", "longitudinal growth (culm length) of summer wheat": "effectively shortened"},
      {"smiles": "Cc1nn(-c2cccnc2)c(-c2ccccc2)c1CC(=O)OCC1CCCC1", "note": "[Example 3-172]", "longitudinal growth (culm length) of summer wheat": "effectively shortened"},
      {"smiles": "COC(=O)Cc1c(C#N)nn(-c2cccnc2)c1-c1ccc(Cl)cc1", "note": "[Example 2-147]", "longitudinal growth (culm length) of summer wheat": "effectively shortened"},
      {"smiles": "Cc1nn(-c2cccnc2)c(-c2ccccc2)c1CC(=O)OCc1ccccc1", "note": "[Example 3-50]", "longitudinal growth (culm length) of summer wheat": "effectively shortened"},
      {"smiles": "COC(=O)Cc1c(C2CC2)nn(-c2cccnc2)c1-c1ccc(Cl)cc1", "note": "[Example 2-146]", "longitudinal growth (culm length) of summer wheat": "effectively shortened"},
      {"smiles": "COC(=O)Cc1c(C)nn(-c2cccnc2)c1-c1ccccc1Cl", "note": "[Example 2-31]", "longitudinal growth (culm length) of summer wheat": "effectively shortened"},
      {"smiles": "Cc1nn(-c2cccnc2)c(-c2ccccc2)c1CC(=O)OCC(F)=C(Cl)Cl", "note": "[Example 3-101]", "longitudinal growth (culm length) of summer wheat": "effectively shortened"},
      {"smiles": "COC(=O)Cc1c(C)nn(-c2cnccc2C)c1-c1ccc(C(C)(C)C)cc1", "note": "[Example 2-32]", "longitudinal growth (culm length) of summer wheat": "effectively shortened"},
      {"smiles": "COC(=O)Cc1c(C)nn(-c2cnccc2Cl)c1-c1ccccc1", "note": "[Example 2-30]", "longitudinal growth (culm length) of summer wheat": "effectively shortened"},
      {"smiles": "C=CCCOC(=O)Cc1c(C)nn(-c2cccnc2)c1-c1ccccc1", "note": "[Example 3-180]", "longitudinal growth (culm length) of summer wheat": "effectively shortened"},
      {"smiles": "CC(C)=CCOC(=O)Cc1c(C)nn(-c2cccnc2)c1-c1ccccc1", "note": "[Example 3-152]", "longitudinal growth (culm length) of summer wheat": "effectively shortened"},
      {"smiles": "Cc1ccncc1-n1nc(C)c(CC(=O)O)c1-c1ccc(C(C)(C)C)cc1", "note": "[Example 1-32]", "longitudinal growth (culm length) of summer wheat": "effectively shortened"}
    ]}
  ]
}
